Experimental data published in publication PMC13566268, “Everolimus-Involving Immunosuppression Attenuates Renal Interstitial Fibrosis Through Modulation of Mammalian Target of Rapamycin-Related Signal Transduction” (International Journal of Molecular Sciences, 2026).

Assay: Pharmacokinetic assessment of immunosuppressants (blood/plasma trough and AUC)
Assay type: in vivo, human
Conditions: Non-EVR group, plasma, mean ± SD
Experimental: Sampling was performed at both 1-month and 1-year posttransplantation. The area under the blood (plasma) concentration–time curve (AUC) was then calculated from these serial measurements.

- MPA AUC0–12 (at 1-month posttransplantation): 53.5 ± 21.0 µg·h/mL
- MPA AUC0–12 (at 1-year posttransplantation): 51.5 ± 20.0 µg·h/mL
SMILES: COc1c(C)c2c(c(O)c1C/C=C(\C)CCC(=O)O)C(=O)OC2 [MPA, mycophenolic acid]
